# Data from US20120016009A1, “Optimized Methods For Delivery Of DSRNA Targeting The PCSK9 Gene” (priority 2008, published 2012).
# In the oligonucleotide strings, read from the 5' end, every base follows the letter of its sugar. An asterisk marks phosphorothioate; unmarked linkages are phosphodiester. Other units and linkages are bracketed, terminal groups are in braces. A string of capitals states the bases alone. d = 2'-deoxy (DNA); m = 2'-O-methyl; r = 2'-OH (RNA)
# System: PCSK9 mRNA
# Assay: PCSK9 siRNA screening in HepG2 cells (lipofectamine 2000 transfection, PCSK9 mRNA by Quantigene, normalized to GAP-DH)
# Format: cell-based, human
# Conditions: for Mean percent remaining mRNA transcript at siRNA concentration/in cell type 30 nM/HepG2: 30 nM siRNA; for Mean percent remaining mRNA transcript at siRNA concentration/in cell type 3 nM/HepG2: 3 nM siRNA; for Mean percent remaining mRNA transcript at siRNA concentration/in cell type 100 nM/HepG2: 100 nM siRNA
# Procedure, shortened: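 HepG2 cells, grown in MEM with 10% fetal calf serum, antibiotics, non-essential amino acids and sodium pyruvate at 37° C. and 5% CO2, were plated at 2.0×10^4 cells/well in 96-well plates and transfected directly with siRNA using lipofectamine 2000. After 24 hours, cells were lysed and PCSK9 mRNA was measured by Quantigene and normalized to GAP-DH mRNA.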
Substance,Mean percent remaining mRNA transcript at siRNA concentration/in cell type 30 nM/HepG2,further results
AD-9664: PCSK9 siRNA (sense mCmCrGrGrGmCrGrGrAmUrGrArAmUrAmCmCrArGdT*dT; antisense rCrUrGrGmUrArUrUmCrArUrCrCrGrCrCrCrGrGdT*dT),53%,
AD-9628: PCSK9 siRNA (sense rUrUrCrUrCrUrGrCrCrArArArGrArUrGrUrCrAdT*dT; antisense rUrGrArCrArUrCrUrUrUrGrGrCrArGrArGrArAdT*dT),141%,
AD-9678: PCSK9 siRNA (sense rArGrGrArGmCrAmUrGrGrArAmUmCmCmCrGrGmCdT*dT; antisense rGrCrCrGrGrGrArUrUrCmCrArUrGrCrUrCrCrUdT*dT),76%,
AD-9607: PCSK9 siRNA (sense rGrGrArGrCrUrGrGrUrGrCrUrArGrCrCrUrUrGdT*dT; antisense rCrArArGrGrCrUrArGrCrArCrCrArGrCrUrCrCdT*dT),32%,IC50: 0.2 nM; Mean percent remaining mRNA transcript at siRNA concentration/in cell type 3 nM/HepG2: 28%
AD-9710: PCSK9 siRNA (sense mCmCmCmUrGrGmCrGrGrGmUrGrGrGmUrAmCrArGdT*dT; antisense rCrUrGmUrArCrCmCrArCrCrCrGrCmCrArGrGrGdT*dT),111%,
AD-9729: PCSK9 siRNA (sense mUmUmUmCmUrGrGrAmUrGrGmCrAmUmCmUrArGmCdT*dT; antisense rGrCmUrArGrArUrGrCmCrArUrCmCrArGrArArAdT*dT),56%,
AD-9739: PCSK9 siRNA (sense mCrGrArGrGrGmCrArGrGrGmUmCrAmUrGrGmUmCdT*dT; antisense rGrArCmCrArUrGrArCrCrCrUrGrCrCrCrUrCrGdT*dT),109%,
AD-9752: PCSK9 siRNA (sense mUrGrArArGrAmUrAmUmUmUrAmUmUmCmUrGrGrGdT*dT; antisense rCrCmCrArGrArAmUrArArAmUrArUrCrUrUmCrAdT*dT),28%,Mean percent remaining mRNA transcript at siRNA concentration/in cell type 3 nM/HepG2: 33%
AD-9609: PCSK9 siRNA (sense rCrArCrGrGrUrArCrCrGrGrGrCrGrGrArUrGrAdT*dT; antisense rUrCrArUrCrCrGrCrCrCrGrGrUrArCrCrGrUrGdT*dT),71%,Mean percent remaining mRNA transcript at siRNA concentration/in cell type 100 nM/HepG2: 66%
AD-9633: PCSK9 siRNA (sense rUrGrGrUrCrArCrCrGrCrUrGrCrCrGrGrCrArAdT*dT; antisense rUrUrGrCrCrGrGrCrArGrCrGrGrUrGrArCrCrAdT*dT),75%,Mean percent remaining mRNA transcript at siRNA concentration/in cell type 100 nM/HepG2: 56%
AD-9599: PCSK9 siRNA (sense rUrUrCrUrGrGrArUrGrGrCrArUrCrUrArGrCrCdT*dT; antisense rGrGrCrUrArGrArUrGrCrCrArUrCrCrArGrArAdT*dT),139%,
AD-9606: PCSK9 siRNA (sense rUrCrGrUrGrCrUrGrGrUrCrArCrCrGrCrUrGrCdT*dT; antisense rGrCrArGrCrGrGrUrGrArCrCrArGrCrArCrGrAdT*dT),107%,
AD-9764: PCSK9 siRNA (sense mCmUrGrGrArGmUmUmUrAmUmUmCrGrGrArArArAdT*dT; antisense rUrUrUrUrCrCrGrArAmUrArArArCrUrCmCrArGdT*dT),112%,
AD-9732: PCSK9 siRNA (sense mUmCrGmUrGmCmUrGrGmUmCrAmCmCrGmCmUrGmCdT*dT; antisense rGmCrArGrCrGrGrUrGrArCmCrArGmCrArCrGrAdT*dT),105%,
AD-9751: PCSK9 siRNA (sense mCmUrGrGmUrGrGrArGrGmUrGmUrAmUmCmUmCmCdT*dT; antisense rGrGrArGrAmUrAmCrArCrCrUrCmCrArCmCrArGdT*dT),60%,
